In patent US12649750B2, “Macrocyclic compounds, compositions, and methods of using thereof” (Sionna Therapeutics Inc., priority 2022, dated 2026):

What was measured:
NBD1 = molecular target: T1, NBD1 (Homo sapiens, UniProt P13569); experiment: Aggregation analysis using differential static light scattering (DSLS), thermal stability of NBD1 (ΔTagg); type: binding; conditions: ΔTagg versus DMSO control, NBD1 0.2 mg/ml
T1 construct: Purified recombinant NBD1 was produced using previously described methods; made in house
T1 sequence (P13569 423-646 limits assumed): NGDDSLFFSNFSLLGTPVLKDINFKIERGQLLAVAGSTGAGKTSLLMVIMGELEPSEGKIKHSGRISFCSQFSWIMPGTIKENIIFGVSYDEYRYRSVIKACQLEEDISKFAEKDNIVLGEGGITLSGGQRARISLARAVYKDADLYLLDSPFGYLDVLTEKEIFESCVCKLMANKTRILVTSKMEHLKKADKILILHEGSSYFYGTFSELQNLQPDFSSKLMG
Procedure, shortened: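 NBD1 0.2 mg/ml, S200 buffer (50 mM Tris-HCl, 150 mM NaCl, 5 mM MgCl2, 2 mM ATP, 2 mM DTT, pH7.6) + 1% glycerol; cpd in DMSO; oil overlay. Ramp 25→70° C. at 1° C./min, DSLS images every 0.5° C. ΔTagg = Tagg (inflection) − mean DMSO Tagg.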

CFTR = molecular target: T2, CFTR (Homo sapiens, UniProt P13569, DEL508-508); experiment: TECC24 AUC fold over DMSO @10 μM, CFTR-mediated transepithelial chloride transport in CF-HBE cells; type: cell-based; conditions: test agent AUC divided by DMSO vehicle AUC, primary CF-HBE cells, ΔF508 homozygous donor, 48 hours incubation
T2 construct: Primary human bronchial epithelial cells from a ΔF508 homozygous CF donor; host or cells: primary human bronchial epithelial cells (CF-HBE), ΔF508 homozygous donor
T2 sequence (P13569 with tags, fused parts or gaps DEL508-508): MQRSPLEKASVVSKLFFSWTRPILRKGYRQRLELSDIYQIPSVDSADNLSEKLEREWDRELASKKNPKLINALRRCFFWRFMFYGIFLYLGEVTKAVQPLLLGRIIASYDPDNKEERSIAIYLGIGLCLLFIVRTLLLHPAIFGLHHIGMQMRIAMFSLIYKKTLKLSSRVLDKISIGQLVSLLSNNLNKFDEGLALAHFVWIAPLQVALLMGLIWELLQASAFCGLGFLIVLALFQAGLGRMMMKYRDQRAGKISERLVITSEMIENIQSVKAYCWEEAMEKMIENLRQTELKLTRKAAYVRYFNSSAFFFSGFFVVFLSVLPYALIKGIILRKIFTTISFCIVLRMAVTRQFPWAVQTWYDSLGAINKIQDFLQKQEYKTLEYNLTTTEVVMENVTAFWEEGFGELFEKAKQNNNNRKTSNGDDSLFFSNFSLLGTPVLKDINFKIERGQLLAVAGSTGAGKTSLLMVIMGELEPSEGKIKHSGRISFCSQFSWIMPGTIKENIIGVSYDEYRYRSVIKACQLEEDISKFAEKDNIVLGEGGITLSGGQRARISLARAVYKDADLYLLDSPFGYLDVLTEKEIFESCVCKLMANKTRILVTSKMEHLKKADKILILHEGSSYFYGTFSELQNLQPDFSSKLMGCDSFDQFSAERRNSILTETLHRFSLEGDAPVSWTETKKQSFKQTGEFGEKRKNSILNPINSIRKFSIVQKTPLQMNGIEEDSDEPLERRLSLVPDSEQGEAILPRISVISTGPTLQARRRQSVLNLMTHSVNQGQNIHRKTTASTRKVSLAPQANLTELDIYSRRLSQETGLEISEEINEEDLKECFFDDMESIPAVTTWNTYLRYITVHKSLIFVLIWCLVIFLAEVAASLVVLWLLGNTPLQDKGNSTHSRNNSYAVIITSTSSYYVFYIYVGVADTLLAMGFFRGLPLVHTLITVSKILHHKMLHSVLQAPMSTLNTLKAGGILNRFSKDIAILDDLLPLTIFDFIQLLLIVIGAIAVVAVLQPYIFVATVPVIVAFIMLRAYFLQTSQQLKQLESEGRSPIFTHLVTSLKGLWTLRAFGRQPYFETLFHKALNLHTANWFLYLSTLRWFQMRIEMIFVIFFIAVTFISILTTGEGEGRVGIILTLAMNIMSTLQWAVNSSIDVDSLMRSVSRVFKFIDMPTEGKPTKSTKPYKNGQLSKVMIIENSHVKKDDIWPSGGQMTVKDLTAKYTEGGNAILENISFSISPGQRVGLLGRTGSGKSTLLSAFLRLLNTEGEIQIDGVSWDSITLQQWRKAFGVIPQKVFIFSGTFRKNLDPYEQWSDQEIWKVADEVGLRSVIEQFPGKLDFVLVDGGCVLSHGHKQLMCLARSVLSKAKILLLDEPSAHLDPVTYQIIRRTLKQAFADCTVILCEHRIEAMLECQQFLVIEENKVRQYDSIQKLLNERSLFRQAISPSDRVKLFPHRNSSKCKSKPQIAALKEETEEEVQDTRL
Procedure, shortened: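 ΔF508-homozygous primary bronchial epithelial cells incubated 48 h at 36.5° C with compound (10 μM) in IL-13-containing medium, then TECC24 current-clamp recording in pH 7.4 Hepes saline with benzamil 10 μM, forskolin 10 μM, then CFTR inhibitor-172 20 μM. Equivalent Cl− current AUC between forskolin and inhibitor, expressed as fold over DMSO.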

Row | SMILES | DSLS 3D (100 μM ΔT) (NBD1) | TECC (AUC, 10 μM) (CFTR)
1 | CC(C(=O)O)C(C)c1cccc(C2(C)CCCC(C)(C)CS(=O)(=O)CCc3c(c(F)cc4[nH]ccc34)Oc3ccc(F)c(c3)-c3nc2nn3C)c1 (stereo not drawn) [Compound 156, 3-[3-(22,28-Difluoro-3,6,10,10-tetramethyl-12,12-dioxo-24-oxa-12λ6-thia-3,4,19,30-tetrazapentacyclo[23.3.1.12,5.015,23.016,20]triaconta-1(29),2(30),4,15,17,20,22,25,27-nonaen-6-yl)phenyl]-2-methyl-butanoic Acid] | C (a value greater than 10 °C and less than or equal to 25 °C is marked “C”) | B (a value between 12-20 is marked “B”)
2 | Cn1nc2nc1-c1cc(ccc1F)Oc1c(F)cc3[nH]ccc3c1CCS(=O)(=O)CCC(F)(F)CCC2(C)c1cccc(CCC(=O)O)c1 (single isomer, unassigned) [Compound 2A, 3-[3-(9,9,22,28-Tetrafluoro-3,6-dimethyl-12,12-dioxo-24-oxa-12λ^6-thia-3,4,19,30-tetrazapentacyclo[23.3.1.1^2,5.0^15,23.0^16,20]triaconta-1(29),2(30),4,15,17,20,22,25,27-nonaen-6-yl)phenyl]propanoic Acid] | B (a value above 5 °C and less than or equal to 10 °C is marked “B”) | B (a value between 12-20 is marked “B”)
3 | Cn1nc2nc1-c1cc(ccn1)Sc1c(F)c(F)c3[nH]ccc3c1CCS(=O)(=O)CC(C)(C)CCC[C@]2(C)c1cccc(C[C@@H](O)CO)c1 [Compound 282, (2R)-3-[3-[(6R)-21,22-difluoro-3,6,10,10-tetramethyl-12,12-dioxo-12λ6,24-dithia-3,4,19,28,30-pentazapentacyclo[23.3.1.12,5.015,23.016,20]triaconta-1(29),2(30),4,15,17,20,22,25,27-nonaen-6-yl]phenyl]propane-1,2-diol] | C (a value greater than 10 °C and less than or equal to 25 °C is marked “C”) | C (a value between 20 and 80 is marked “C”)
4 | Cn1nc2nc1-c1cc(ccc1F)[S+]([O-])c1c(F)cc3[nH]ccc3c1CCS(=O)(=O)CC(C)(C)CCC[C@]2(C)c1cccc(CC(=O)O)c1 (single isomer, unassigned) [Compound 209B] | C (a value greater than 10 °C and less than or equal to 25 °C is marked “C”) | C (a value between 20 and 80 is marked “C”)
5 | C[C@@H](Cc1cccc(C2(C)CCCC(C)(C)CS(=O)(=O)CCc3c(c(F)cc4[nH]ccc34)Oc3ccc(F)c(c3)-c3nc2nn3C)c1)C(=O)NS(=O)(=O)C1CC1 (single isomer, unassigned) [Compound 150] | C (a value greater than 10 °C and less than or equal to 25 °C is marked “C”) | A (a TECC value less than 12 is marked “A”)
6 | CC1(C)CCCC(c2cccc(CCC(=O)O)c2)n2cc(Cl)c(n2)-c2cc(ccc2F)Oc2c(F)cc3[nH]ccc3c2CCS(=O)(=O)C1 (stereo not drawn) [Compound 70, 3-[3-(3-Chloro-22,28-difluoro-10,10-dimethyl-12,12-dioxo-24-oxa-12λ6-thia-5,19,30-triazapentacyclo[23.3.1.12,5.015,23.016,20]triaconta-1(29),2(30),3,15,17,20,22,25,27-nonaen-6-yl)phenyl]propanoic Acid] | C (a value greater than 10 °C and less than or equal to 25 °C is marked “C”) | A (a TECC value less than 12 is marked “A”)
7 | Cn1nc2nc1-c1cc(ccn1)[S+]([O-])c1c(F)c(F)c3[nH]ccc3c1CCS(=O)(=O)CC(C)(C)CCC[C@]2(C)c1cccc(CC(O)CO)c1 (stereo in doubt) [Compound 292, (2R)-3-[3-[(6R)-21,22-difluoro-3,6,10,10-tetramethyl-12,12,24-trioxo-12λ6,24λ4-dithia-3,4,19,28,30-pentazapentacyclo[23.3.1.12,5.015,23.016,20]triaconta-1(29),2(30),4,15,17,20,22,25,27-nonaen-6-yl]phenyl]propane-1,2-diol] | C (a value greater than 10 °C and less than or equal to 25 °C is marked “C”) | C (a value between 20 and 80 is marked “C”)
8 | Cn1nc2nc1-c1cc(ccc1F)Oc1c(F)cc3[nH]ccc3c1Cc1ccn(n1)CCS(=O)(=O)CCC2(C)c1cccc(CCC(=O)O)c1 (single isomer, unassigned) [Compound 100A, 3-[3-(24,30-difluoro-3,6-dimethyl-9,9-dioxo-26-oxa-9λ6-thia-3,4,12,21,32,33-hexazahexacyclo[25.3.1.12,5.112,15.017,25.018,22]tritriaconta-1(31),2(33),4,13,15(32),17,19,22,24,27,29-undecaen-6-yl)phenyl]propanoic Acid] | C (a value greater than 10 °C and less than or equal to 25 °C is marked “C”) | A (a TECC value less than 12 is marked “A”)
9 | CC(Cc1cccc(C2(C)CCOC(C)(C)CS(=O)(=O)CCc3c(c(F)cc4[nH]ccc34)Oc3ccc(F)c(c3)-c3nc2nn3C)c1)C(=O)O (single isomer, unassigned) [Compound 28B, 3-[3-(22,28-difluoro-3,6,10,10-tetramethyl-12,12-dioxo-9,24-dioxa-12lambda6-thia-3,4,19,30-tetrazapentacyclo[23.3.1.12,5.015,23.016,20]triaconta-1(29),2(30),4,15,17,20,22,25,27-nonaen-6-yl)phenyl]-2-methyl-propanoic Acid] | A (an ΔTagg value less than or equal to 5 °C is marked “A”) | B (a value between 12-20 is marked “B”)
10 | CCOC(=O)CC(O)c1cccc(C2(C)CCCC(C)(C)CS(=O)(=O)CCc3c(c(F)cc4[nH]ccc34)Oc3ccc(F)c(c3)-c3nc2nn3C)c1 (stereo not drawn) [Compound 177, Ethyl 3-[3-(22,28-difluoro-3,6,10,10-tetramethyl-12,12-dioxo-24-oxa-12λ6-thia-3,4,19,30-tetrazapentacyclo[23.3.1.12,5.015,23.016,20]-triaconta-1(29),2(30),4,15,17,20,22,25,27-nonaen-6-yl)phenyl]-3-hydroxy-propanoate] | B (a value above 5 °C and less than or equal to 10 °C is marked “B”) | C (a value between 20 and 80 is marked “C”)
11 | C[C@@H](Cc1cccc(C2(C)CCCC(C)(C)CS(=O)(=O)CCc3c(c(F)cc4[nH]ccc34)S(=O)(=O)c3ccc(F)c(c3)-c3nc2nn3C)n1)C(=O)O (single isomer, unassigned) [Compound 180B] | A (an ΔTagg value less than or equal to 5 °C is marked “A”) | A (a TECC value less than 12 is marked “A”)
12 | Cn1nc2nc1-c1cc(ccc1F)Oc1c(F)cc3[nH]ccc3c1CCS(=O)(=O)CC(C)(C)CCCC2(C)c1cccc(CC2CC(=O)NC2=O)c1 (single isomer, unassigned) [Compound 196A, 3-[[3-(22,28-difluoro-3,6,10,10-tetramethyl-12,12-dioxo-24-oxa-12λ6-thia-3,4,19,30-tetrazapentacyclo[23.3.1.12,5.015,23.016,20]triaconta-1(29),2(30),4,15,17,20,22,25,27-nonaen-6-yl)phenyl]methyl]pyrrolidine-2,5-dione] | C (a value greater than 10 °C and less than or equal to 25 °C is marked “C”) | A (a TECC value less than 12 is marked “A”)
